Test results from patent US9783513B2, “STAT3 inhibitors and their anticancer use” (Ohio State Innovation Foundation, priority 2012, dated 2017).

Test system: HUVEC spheroids
Test: 3D in vitro angiogenesis (spheroid sprouting) assay
Format: cell-based, human
Conditions: 300 nM
Protocol: The Endothelial Tube Formation Assay (CBA200, Cell Biolabs Inc., San Diego, Calif., USA) was used in addition to the HUVEC proliferation assay. The ECM gel was thawed at 4° C. and mixed to homogeneity using cooled pipette tips. Cell culture plates (96-well) were bottom-coated with a thin layer of ECM gel (50 μl/well), which was left to polymerize at 37° C. for 60 min. HUVEC (2-3×10^4 cells) were stimulated with VEGF in 150 μl medium and added to each well on the solidified ECM gel. Culture medium was added to each well in the presence or absence of LY5. The plates were incubated at 37° C. for 12-18 hours and the endothelial tubes were quantified using a fluorescent microscope after staining with Calcein AM. Three microscope fields were selected at random and photographed. Tube forming ability was quantified by counting the total number of cell clusters and branches under a 4× objective and […] per well. The results are expressed as mean fold change of branching compared with the control groups. Each experiment was performed at least three times. The 3D in vitro angiogenesis assay was performed essentially as described by manufactures instructions (promo cell). […] The spheroids were photographed after 24 hours and sprout formation assessed as described.

SMILES: NS(=O)(=O)c1cccc2c1C(=O)C=C(Nc1cccnc1)C2=O [LY-5, 5,8-dioxo-6-(pyridin-3-ylamino)-5,8-dihydronaphthalene-1-sulfonamide]
- VEGF induced sprouting from preformed HUVEC spheroids: reduce HUVEC vascular sprout length
- VEGF induced sprouting from preformed HUVEC spheroids (listed as LY5): impaired angiogenic sprouting
